In patent publication US5707989A, “Pyrimido[5,4-D]pyrimidines, medicaments comprising these compounds, their use and processes for their preparation” (Dr. Karl Thomae GmbH, priority 1994, dated 1998):

Experiments:
Format in all cases: cell-based
human EGF-R = target: T1, human EGF-R (Homo sapiens, UniProt P00533); assay: Inhibition of EGF-dependent proliferation of F/L-HERc cells; conditions: human EGF 20 ng/ml, 48 hours
T1 construct: expressed in transfected cells; host or cells: F/L-HERc cells: murine IL-3-dependent line FDC-P1 infected with recombinant retrovirus (LXSN vector, GP+E86 packaging line) carrying human EGF-R cDNA
From the text: (§1) The inhibition of EGF-R-mediated signal transmission can be detected, for example, with cells which express human EGF-R, the survival and proliferation of which depend on stimulation by EGF or TGF-alpha. An interleukin-3 (IL-3)-dependent cell line of murine origin which was changed genetically such that it expresses functional human EGF-R was used here. The proliferation of these cells, called F/L-HERc, can therefore be stimulated either by murine IL-3 or by EGF (see von Ruden, T. et al. in EMBO J. 7, 2749-2756 (1988) and Pierce, J. H. et al. in Science 239, 628-631 (1988)).
(§2) The starting material used for the F/L-HERc cells was the cell line FDC-P1, the preparation of which has been described by Dexter, T. M. et al. in J. Exp. Med. 152, 1036-1047 (1980). Alternatively, however, other growth factor-dependent cells can also be used (see, for example, Pierce, J. H. et al. in Science 239, 628-631 (1988), Shibuya, H. et al. in Cell 70, 57-67 (1992) and Alexander, W. S. et al. in EMBO J. 10, 3683-3691 (1991)). Recombinant retroviruses were used for expression of the human EGF-R cDNA (see Ullrich, A. et al. in Nature 309, 418-425 (1984)), as described in yon Ruden, T. et al., EMBO J. 7, 2749-2756 (1988), with the difference that the retroviral vector LXSN (see Miller, A. D. et al. in BioTechniques 7, 980-990 (1989)) was used for expression of the EGF-R cDNA and the line GP+E86 (see Markowitz, D. et al. in J. Virol. 62, 1120-1124 (1988)) was used as the packing cell.
(§3) The test was carried out as follows:
(§4) F/L HERc cells were cultured at 37° C. and 5% CO2 in RPMI/1640 medium (BioWhittaker), supplemented with 10% foetal bovine serum (FCS, Boehringer Mannheim), 2 mM glutamine (BioWhittaker), standard antibiotics and 20 ng/ml of human EGF (Promega). For investigation of the inhibitory activity of the compounds according to the invention, 1.5×10^4 cells per well were cultured in triplicate in 96-well plates in the above medium (200 μl), proliferation of the cells being stimulated with either EGF (20 ng/ml) or murine IL-3. Culture stocks of the cell line X63/0 mIL-3 were used as the source for IL-3 (see Karasuyama, H. et al. in Eur. J. Immunol. 18, 97-104 (1988)). The compounds according to the invention were dissolved in 100% dimethyl sulphoxide (DMSO) and added to the cultures in various dilutions, the maximum DMSO concentration being 1%. The cultures were incubated at 37° C. for 48 hours.
(§5) To determine the inhibitory activity of the compounds according to the invention, the relative cell count was measured in OD units with Cell Titer 96™ Aqueous Non-Radioactive Cell Proliferation Assay (Promega). The relative cell count was calculated in per cent of the control (F/LHERc cells without inhibitor) and the active compound concentration which inhibits the proliferation of the cells to 50% (IC50) was deduced.

F/L-HERc cells = assay: Inhibition of IL-3-dependent proliferation of F/L-HERc cells; conditions: Mus musculus, murine IL-3, 48 hours
From the text: as §1, §2, §3, §4, §5

[1] = tested on: human tumour cell line KB; assay: EGF/TGF-alpha-stimulated proliferation (thymidine incorporation) of KB cells; conditions: TGF-alpha 10 ng/ml or EGF 20 ng/ml, 60 hours, then [3H]-thymidine 16-18 hours, read-out: IC50 for inhibition of the EGF/TGF-alpha-stimulated KB cell proliferation
Experimental: KB cells (obtained from ATCC) were passaged in DMEM (BioWhittaker) in the presence of 10% FCS (Boehringer Mannheim), 50 μM beta-mercaptoethanol and standard antibiotics. As an indicator of EGF/TGF-alpha-stimulated cell proliferation, the EGF-inducedDNA synthesis was determined by measurement of the incorporation of radioactively labelled thymidine. For this, the celels were washed twice and 1500 cells per well were plated out in a 96-well plate in 200 μl IMDM (BioWhittaker) without serum in the presence of 50 μM beta-mercaptoethanol, standard antibiotics, TGF-alpha [10 ng/ml] or EGF [20 ng/ml] and various concentrations of the substances according to the invention (triplicates, maximum DMSO concentration 1%, see proliferation test with F/L-HERc cells). After 60 hours, [^3 H]-thymidine (0.1 μCi in 10 μl) was added for about 16-18 hours. Subsequent measurement of the thymidine incorporation gave IC50 values of 0.1-1 μM for inhibition of the EGF/TGF-alpha-stimulated KB cell proliferation for compounds 2, 6, 17, 18, 19, 72, 83, 93, 95, 96 and 104 of Example 1.

T1 sequence (P00533 25-1210): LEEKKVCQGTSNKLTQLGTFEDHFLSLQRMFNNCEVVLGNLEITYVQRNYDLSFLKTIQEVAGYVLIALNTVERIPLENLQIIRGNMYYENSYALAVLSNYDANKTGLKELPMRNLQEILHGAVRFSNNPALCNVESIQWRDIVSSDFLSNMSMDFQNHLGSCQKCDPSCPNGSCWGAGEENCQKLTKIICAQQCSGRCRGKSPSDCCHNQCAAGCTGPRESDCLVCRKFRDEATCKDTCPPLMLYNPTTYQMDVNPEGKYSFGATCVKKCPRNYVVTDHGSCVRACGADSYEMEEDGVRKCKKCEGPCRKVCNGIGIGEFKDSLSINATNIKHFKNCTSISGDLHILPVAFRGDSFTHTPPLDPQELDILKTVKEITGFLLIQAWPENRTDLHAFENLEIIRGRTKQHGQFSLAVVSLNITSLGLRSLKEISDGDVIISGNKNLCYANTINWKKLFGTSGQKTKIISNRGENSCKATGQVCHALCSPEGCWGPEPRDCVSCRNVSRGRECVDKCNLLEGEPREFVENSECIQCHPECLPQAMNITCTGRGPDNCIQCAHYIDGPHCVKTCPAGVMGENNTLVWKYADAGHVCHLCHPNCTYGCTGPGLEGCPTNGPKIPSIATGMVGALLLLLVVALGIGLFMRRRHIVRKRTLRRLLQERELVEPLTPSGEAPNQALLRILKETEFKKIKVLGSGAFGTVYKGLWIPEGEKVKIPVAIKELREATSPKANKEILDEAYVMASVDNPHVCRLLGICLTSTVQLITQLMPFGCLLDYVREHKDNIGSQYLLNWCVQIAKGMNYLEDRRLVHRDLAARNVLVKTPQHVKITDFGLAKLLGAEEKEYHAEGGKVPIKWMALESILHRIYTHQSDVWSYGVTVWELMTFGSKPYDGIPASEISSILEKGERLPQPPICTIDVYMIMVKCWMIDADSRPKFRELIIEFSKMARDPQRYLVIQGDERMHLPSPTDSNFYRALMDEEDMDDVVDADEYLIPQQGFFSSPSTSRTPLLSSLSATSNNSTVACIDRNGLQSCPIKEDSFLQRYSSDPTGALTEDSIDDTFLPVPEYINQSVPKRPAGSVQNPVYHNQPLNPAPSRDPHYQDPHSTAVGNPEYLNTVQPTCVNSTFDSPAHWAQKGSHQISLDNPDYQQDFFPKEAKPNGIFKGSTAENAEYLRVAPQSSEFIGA

Row | Structure (SMILES) | IC50 (human EGF-R) [nM] | IC50 [1] [nM] | IC50 (F/L-HERc cells) [nM]
1 | Cc1cccc(Nc2ncnc3cnc(N4CCN(c5ccccc5)CC4)nc23)c1 [1(3), 4-[(3-Methylphenyl)amino]-6-(1-phenyl-4-piperazinyl)-pyrimido[5,4-d]pyrimidine] | 2500 |  | > 10000
2 | COc1ncc2ncnc(Nc3cccc(C)c3)c2n1 [1(5), 4-[(3-Methylphenyl)amino]-6-methoxy-pyrimido[5,4-d]pyrimidine] | 1000 |  | > 10000
3 | CCN(CC)c1ncc2ncnc(Nc3cccc(C)c3)c2n1 [1(10), 4-[(3-Methylphenyl)amino]-6-(diethylamino)-pyrimido[5,4-d]pyrimidine] | 500 |  | > 10000
4 | Cc1cccc(Nc2ncnc3cnc(N)nc23)c1 [1(13), 4-[(3-Methylphenyl)amino]-6-amino-pyrimido[5,4-d]pyrimidine] | 300 |  | > 10000
5 | Cc1cccc(Nc2ncnc3cnc(N4CCC(N)CC4)nc23)c1 [1(61), 4-[(3-Methylphenyl)amino]-6-(4-amino-1-piperidinyl)-pyrimido[5,4-d]pyrimidine] | 32 |  | 9000
6 | Cc1cccc(Nc2ncnc3cnc(N[C@H]4CC[C@H](NC(=O)OC(C)(C)C)CC4)nc23)c1 [1(108), 4-[(3-Methylphenyl)amino]-6-[(trans-4-tert-butyloxycarbonylamino-cyclohexyl)amino]pyrimido[5,4-d]pyrimidine] | 50 |  | > 10000
7 | Cc1cccc(Nc2ncnc3cnc(NC4CCC(=O)CC4)nc23)c1 [1(109), 4-[(3-Methylphenyl)amino]-6-[(4-oxo-cyclohexyl)amino]pyrimido[5,4-d]pyrimidine] | 15 |  | 10000
8 | Cc1cccc(Nc2ncnc3cnc(NC4CCOCC4)nc23)c1 [1(170), 4-[(3-Methylphenyl)amino]-6-(4-tetrahydropyranylamino)-pyrimido[5,4-d]pyrimidine] | 15 |  | > 10000
9 | Cc1cccc(Nc2ncnc3cnc(Nc4ccc(N5CCCC5CO)cc4)nc23)c1 (stereo not drawn) [1(193), 4-[(3-Methylphenyl)amino]-6-[4-(2-hydroxymethyl-1-pyrrolidinyl)phenylamino]-pyrimido[5,4-d]pyrimidine] | 4 |  | 10000
10 | Cc1cccc(Nc2ncnc3cnc(NCC4COCCOCCOCCOCCO4)nc23)c1 (stereo not drawn) [1(197)] | 900 |  | 10000
11 | O[C@H]1CC[C@H](Nc2ncc3ncnc(Nc4ccc(F)c(Cl)c4)c3n2)CC1 [1(204), 4-[(3-Chloro-4-fluoro-phenyl)amino]-6-[(trans-4-hydroxycyclohexyl)-amino]-pyrimido[5,4-d]pyrimidine] | 0.8 |  | > 10000
12 | FC(F)(F)Oc1cccc(Nc2ncnc3cnc(NC4CC4)nc23)c1 [3(18), 4-[(3-Trifluoromethoxyphenyl)amino]-6-(cyclopropylamino)-pyrimido[5,4-d]pyrimidine] | 50 |  | > 3000
13 | Brc1cccc(Nc2ncnc3cncnc23)c1 [4(1), 4-[(3-Bromophenyl)amino]-pyrimido[5,4-d]pyrimidine] | 2000 |  | > 10000
14 | Cc1cccc(Nc2ncnc3cnc(NC(C)C)nc23)c1 [Example 1(2), 4-[(3-Methylphenyl)amino]-6-(isopropylamino)-pyrimido[5,4-d]pyrimidine] |  | 100 to 1000 | 
15 | Cc1cccc(Nc2ncnc3cnc(N4CCCC4)nc23)c1 [Example 1(18), 4-[(3-Methylphenyl)amino]-6-(1-pyrrolidinyl)-pyrimido[5,4-d]pyrimidine] |  | 100 to 1000 | 

The remaining compounds from weak to strong by IC50 (human EGF-R), led by results:

Row | IC50 (human EGF-R) [nM] | IC50 [1] [nM] | Structure (SMILES) | IC50 (F/L-HERc cells) [nM]
16 | 50 |  | Fc1cc(F)cc(Nc2ncnc3cnc(NC4CC4)nc23)c1 [3(5), 4-[(3,5-Difluorophenyl)amino]-6-(cyclopropylamino)-pyrimido[5,4-d]pyrimidine] | > 3000
17 | 40 |  | Cc1cccc(Nc2ncnc3cnc(NC4CCN(C)CC4)nc23)c1 [1(62), 4-[(3-Methylphenyl)amino]-6-[(1-methyl-4-piperidinyl)amino]-pyrimido[5,4-d]pyrimidine] | > 1000
18 | 32 |  | N#Cc1cc(Nc2ncnc3cnc(N[C@H]4CC[C@H](O)CC4)nc23)ccc1N [1(201), 4-[(4-Amino-3-cyano-phenyl)amino]-6-[(trans-4-hydroxycyclohexyl)-amino]-pyrimido[5,4-d]pyrimidine] | > 10000
19 | 25 |  | C#CCNc1ncc2ncnc(Nc3cccc(C)c3)c2n1 [1(23), 4-[(3-Methylphenyl)amino]-6-(propargylamino)-pyrimido[5,4-d]pyrimidine] | > 3000
20 | 20 |  | Cc1cccc(Nc2ncnc3cnc(NC(C)CO)nc23)c1 (stereo not drawn) [1(58), 4-[(3-Methylphenyl)amino]-6-(1-hydroxy-2-propylamino)pyrimido[5,4-d]pyrimidine] | > 3000
21 | 20 |  | O=[N+]([O-])c1cccc(Nc2ncnc3cnc(NC4CC4)nc23)c1 [3(45), 4-[(3-Nitrophenyl)amino]-6-(cyclopropylamino)-pyrimido[5,4-d]pyrimidine] | > 1000
22 | 15 |  | N#Cc1cccc(Nc2ncnc3cnc(NC4CC4)nc23)c1 [3(19), 4-[(3-Cyanophenyl)amino]-6-(cyclopropylamino)-pyrimido[5,4-d]pyrimidine] | > 3000
23 | 13 |  | Cc1cccc(Nc2ncnc3cnc(N[C@H]4CC[C@H](C(=O)O)CC4)nc23)c1 [1(134), 4-[(3-Methylphenyl)amino]-6-[trans-4-carboxy-cyclohexylamino]-pyrimido[5,4-d]pyrimidine] | > 10000
24 | 8 |  | Fc1ccc(Nc2ncnc3cnc(NCCN4CCOCC4)nc23)cc1Cl [1(129), 4-[(3-Chloro-4-fluoro-phenyl)amino]-6-[2-(morpholino)-ethylamino]-pyrimido[5,4-d]pyrimidine] | > 20000
25 | 5 |  | Cc1cccc(Nc2ncnc3cnc(N[C@H]4CC[C@H](C(=O)N5CCOCC5)CC4)nc23)c1 [1(140), 4-[(3-Methylphenyl)amino]-6-[trans-4-(morpholinocarbonyl)cyclohexylamino]-pyrimido[5,4-d]pyrimidine] | > 10000
26 | 5 |  | CC(CO)(CO)Nc1ncc2ncnc(Nc3ccc(Cl)c(F)c3)c2n1 [1(183), 4-[(4-Chloro-3-fluoro-phenyl)amino]-6-(1,3-dihydroxy-2-methyl-2-propylamino)-pyrimido[5,4-d]pyrimidine] | > 20000
27 | 2 |  | O[C@H]1CC[C@H](Nc2ncc3ncnc(Nc4cccc(Cl)c4)c3n2)CC1 [1(110), 4-[(3-Chlorophenyl)amino]-6-[(trans-4-hydroxycyclohexyl)amino]pyrimido[5,4-d]pyrimidine] | > 10000
28 | 2 |  | Nc1c(Cl)cc(Nc2ncnc3cnc(N[C@H]4CC[C@H](O)CC4)nc23)cc1Cl [1(207), 4-[(4-Amino-3,5-dichloro-phenyl)amino]-6-[(trans-4-hydroxycyclohexyl)-amino]-pyrimido[5,4-d]pyrimidine] | > 10000
